Holding throughout (test): NCI tumour cell line growth inhibition, 48 h
Test [1] concerns NCI/ADR-RES ovarian.
In test [2] the test system is MOLT-4 leukemia.
Test [3] deals with OVCAR-8 ovarian.
Test [4] relates to SF-295 CNS.
Test [5] relates to TK-10 renal.
Test [6] concerns SNB-75 CNS.
For test [7], the system named is SK-MEL-2 melanoma.
In test [8] the test system is U251 CNS.
The test system of test [9] is SK-MEL-5 melanoma.
Test [10] deals with SR leukemia.

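Method: 48-hour compound exposure of cells in 96-well plates, five concentrations, linear interpolation of endpoints. GI50: concentration for 50% inhibition of growth. TGI denotes the concentration required for complete inhibition of growth.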

Consider `Cc1c([N+](=O)[O-])oc2ccc3ccccc3c12`, for which the TGI in test [1], in [2], in test [3], in test [4], in test [5] and in test [6] was more than 100 µM each time. Moreover, the TGI in test [7], in [8], in test [9] and in [10] was more than 100 µM each time.

`O=Nc1c(-c2c(O)[nH]c3ccc(Br)cc23)[nH]c2ccccc12`: the GI50 in test [1] was 4.24 µM; in test [2], 2.93 µM; in [3] it was 4.29 µM; in test [4], 9.8 µM; in test [5] it was 3.77 µM; in [6] it was 7.58 µM. Further, the GI50 in [7] was 2650 nM; in [8], 4.83 µM; in test [9], 1240 nM; in [10], 2120 nM. Moreover, the TGI in test [1] is 63.4 µM; in test [2], 7.21 µM; in test [3] it was more than 100 µM; in test [4] it was 54.1 µM; in test [5], more than 100 µM; in [6] it was 28.3 µM. For the same compound, the TGI in test [7] is more than 100 µM; in test [8], 23.1 µM; in test [9], 2.53 µM; in test [10] it was 5.62 µM.

As to `O=C1C(Cl)=C(Nc2cccc(O)c2)C(=O)N1Cc1ccc(Cl)cc1Cl`, the GI50 in test [1] was 2 µM; in test [2] it was 3.22 µM; in [3] it was 1.94 µM; in test [4], 11.3 µM; in [5], 13.6 µM; in test [6] it was 6.1 µM. Besides, the GI50 in test [7] is 1250 nM; in [8], 4.31 µM; in [9] it was 840 nM; in test [10], 1880 nM. Moreover, the TGI in test [1] stood at 26.6 µM; in [2] it was 19.2 µM; in test [3] it was 27.1 µM; in [4] it was 25.1 µM; in test [5] it was 28.4 µM; in test [6] it was 20.6 µM. The TGI in test [7] is 11.1 µM; in test [8] it was 15.5 µM; in test [9], 5.64 µM; in [10], 11.9 µM.

On to `O=C(NC(=S)Nc1cc(Cl)ccc1O)c1cccc(Br)c1`, for which the GI50 in test [1] is 5.77 µM; in test [2], 4.47 µM; in test [3] it was 6.54 µM; in test [4] it was 3.59 µM; in [5], 17.1 µM; in test [6], 11.8 µM. The GI50 in [7] was 12100 nM; in test [8], 3.95 µM; in test [9], 6210 nM; in test [10] it was 7340 nM. Further, the TGI is 98 µM in test [1]; more than 100 µM in test [2]; more than 100 µM in test [3]; 24.9 µM in test [4]; 78.9 µM in [5]; 75.8 µM in [6]. The TGI in test [7], in test [8], in [9] and in test [10] was more than 100 µM each time.

Regarding `O=C(O)C(Oc1nc(=S)[nH]c(=S)[nH]1)(c1ccc(Cl)cc1)c1ccc(Cl)cc1`, the TGI in [1], in test [2], in [3], in test [4], in [5] and in [6] was more than 100 µM each time. Besides, the TGI in [7], in test [8], in test [9] and in test [10] was more than 100 µM each time.

On to `Cc1ccc(Sc2cc3c(oc2=O)-c2ccccc2OC3O)cc1` (stereo not drawn), for which the GI50 in test [1] is 25.2 µM; in [2], 13.3 µM; in test [3], 27.8 µM; in [4], 30.2 µM; in [5], 33.8 µM; in test [6] it was 30.5 µM. The GI50 in test [7] was 22100 nM; in [8], 21.1 µM; in test [9], 17100 nM; in test [10], 18400 nM. Also, the TGI in [1] is 60.5 µM; in test [2], 34.2 µM; in test [3] it was 71.3 µM; in test [4], 67.5 µM; in test [5] it was 84.9 µM; in test [6] it was 81.2 µM. Besides, the TGI in [7] turned out to be 47.7 µM; in test [8] it was 42.3 µM; in test [9], 32.9 µM; in [10] it was 46.3 µM.

On to `CC(C)=CCCC(C)C1=C(O)C(=O)C(C)=CC1=O` (stereo not drawn), for which the TGI in [1] was more than 49.1 µM; in test [2], 5.12 µM; in [3], 40.9 µM; in [4] it was more than 100 µM; in test [5], 23.5 µM; in test [6], 37.6 µM. Further, the TGI in test [7] is 34 µM; in [8] it was more than 56.1 µM; in test [9], 24.6 µM; in test [10], 5.39 µM.

For the compound `O=C1OCC2=C1C(c1ccccc1)c1cc3c(cc1N2CCO)OCCO3` (stereo not drawn), the GI50 in test [1] is 0.377 µM; in [2], 0.236 µM; in test [3], 0.651 µM; in [4], 0.183 µM; in test [5], 1.27 µM; in [6], 0.121 µM. Also, the GI50 in [7] is 156 nM; in [8] it was 0.279 µM; in test [9] it was 181 nM; in test [10] it was 140 nM. For the same compound, the TGI was 1.93 µM in [1]; more than 10.4 µM in [2]; more than 50 µM in test [3]; 0.427 µM in test [6]; 0.432 µM in [7]; more than 50 µM in test [8]. Besides, the values for the TGI in test [9] and in test [10] were 7.18 µM and 2.57 µM, respectively.

`Cc1coc2c1C(OC(=O)C(C)C)C1(C)C(C)CCC(O)C1C2=O` (stereo not drawn): the TGI in test [1], in [2], in test [3], in [4], in [5] and in test [6] was more than 100 µM each time. Further, the TGI in [7], in test [8], in [9] and in [10] was more than 100 µM throughout.

(Values after PubChem BioAssay (NCI).)
